Data set [1] deals with T1, Sodium/glucose cotransporter 1 (Homo sapiens, UniProt P13866).
T1 sequence (P13866 whole entry): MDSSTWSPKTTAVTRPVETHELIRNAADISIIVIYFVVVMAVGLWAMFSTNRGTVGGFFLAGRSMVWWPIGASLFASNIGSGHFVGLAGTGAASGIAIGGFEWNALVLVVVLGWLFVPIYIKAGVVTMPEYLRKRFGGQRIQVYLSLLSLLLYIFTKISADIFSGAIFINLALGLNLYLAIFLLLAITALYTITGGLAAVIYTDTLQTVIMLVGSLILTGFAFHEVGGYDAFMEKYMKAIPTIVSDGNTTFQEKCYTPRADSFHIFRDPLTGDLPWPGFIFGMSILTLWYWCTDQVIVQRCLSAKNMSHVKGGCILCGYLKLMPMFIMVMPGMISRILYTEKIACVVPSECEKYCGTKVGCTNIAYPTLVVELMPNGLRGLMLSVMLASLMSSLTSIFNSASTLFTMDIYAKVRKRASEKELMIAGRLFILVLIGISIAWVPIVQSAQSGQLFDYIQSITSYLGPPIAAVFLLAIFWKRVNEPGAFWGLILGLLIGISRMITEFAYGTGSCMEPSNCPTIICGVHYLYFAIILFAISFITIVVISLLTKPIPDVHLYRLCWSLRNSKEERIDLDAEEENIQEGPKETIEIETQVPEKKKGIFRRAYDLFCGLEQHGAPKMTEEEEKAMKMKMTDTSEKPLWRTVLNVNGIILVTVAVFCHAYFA
Put plainly: Inhibition of human SGLT1 expressed in CHO cells assessed as inhibition of [14C]-alpha-methyl-D-glucopyranoside transport after 60 mins by scintillation counting. In kind it is cell-based.

Data set [2] has as its target T2, Sodium/glucose cotransporter 2 (Homo sapiens, UniProt P31639).
T2 sequence (P31639 whole entry): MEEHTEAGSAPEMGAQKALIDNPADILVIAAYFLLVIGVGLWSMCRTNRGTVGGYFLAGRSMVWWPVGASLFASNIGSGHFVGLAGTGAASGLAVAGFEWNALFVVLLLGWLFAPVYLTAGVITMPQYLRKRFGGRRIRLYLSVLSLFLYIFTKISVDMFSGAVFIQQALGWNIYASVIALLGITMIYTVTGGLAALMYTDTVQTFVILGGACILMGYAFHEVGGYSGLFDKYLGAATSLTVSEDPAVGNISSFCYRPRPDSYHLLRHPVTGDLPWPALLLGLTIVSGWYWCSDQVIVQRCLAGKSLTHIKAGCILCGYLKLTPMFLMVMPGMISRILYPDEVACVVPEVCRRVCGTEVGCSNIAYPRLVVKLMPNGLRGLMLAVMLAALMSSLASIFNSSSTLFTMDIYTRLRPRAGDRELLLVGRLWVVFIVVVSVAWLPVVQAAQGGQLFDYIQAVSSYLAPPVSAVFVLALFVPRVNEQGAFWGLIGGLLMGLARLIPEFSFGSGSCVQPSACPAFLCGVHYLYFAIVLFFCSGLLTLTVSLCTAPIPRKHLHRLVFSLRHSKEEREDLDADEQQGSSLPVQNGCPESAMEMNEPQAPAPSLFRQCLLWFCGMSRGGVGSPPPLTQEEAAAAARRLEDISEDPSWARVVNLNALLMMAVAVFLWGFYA
Kind of data set: Inhibition of human SGLT2 expressed in CHO cells assessed as inhibition of [14C]-alpha-methyl-D-glucopyranoside transport after 60 mins by scintillation counting. In kind it is cell-based.

Data set [3] deals with T2, Sodium/glucose cotransporter 2. Put plainly: Displacement of [3H]dapagliflozin from human SGLT2 expressed in CHO cells after 60 mins by scintillation counting. In kind it is cell-based. In general terms: Loss of bound radioactivity is the signal in a displacement assay; it reports binding, not function.
Data set [4] is described as follows: Metabolic stability in rat liver microsomes assessed as compound remaining after 30 mins. It is filed as ADME, Microsome. The conditions noted are these: read-out: Stability. In general terms: Microsomes from liver hold many membrane-bound enzymes, among them those of drug oxidation.
Data set [5] concerns the target T2, Sodium/glucose cotransporter 2. Put plainly: Inhibition of human SGLT2 expressed in CHO cells assessed as inhibition of [14C]-alpha-methyl-D-glucopyranoside transport after 60 mins by scintillation counting in presence of 100% plasma. It is filed as cell-based.
Data set [6] addresses T3, Sodium/myo-inositol cotransporter 2 (Homo sapiens, UniProt Q8WWX8).
T3 sequence (Q8WWX8 whole entry): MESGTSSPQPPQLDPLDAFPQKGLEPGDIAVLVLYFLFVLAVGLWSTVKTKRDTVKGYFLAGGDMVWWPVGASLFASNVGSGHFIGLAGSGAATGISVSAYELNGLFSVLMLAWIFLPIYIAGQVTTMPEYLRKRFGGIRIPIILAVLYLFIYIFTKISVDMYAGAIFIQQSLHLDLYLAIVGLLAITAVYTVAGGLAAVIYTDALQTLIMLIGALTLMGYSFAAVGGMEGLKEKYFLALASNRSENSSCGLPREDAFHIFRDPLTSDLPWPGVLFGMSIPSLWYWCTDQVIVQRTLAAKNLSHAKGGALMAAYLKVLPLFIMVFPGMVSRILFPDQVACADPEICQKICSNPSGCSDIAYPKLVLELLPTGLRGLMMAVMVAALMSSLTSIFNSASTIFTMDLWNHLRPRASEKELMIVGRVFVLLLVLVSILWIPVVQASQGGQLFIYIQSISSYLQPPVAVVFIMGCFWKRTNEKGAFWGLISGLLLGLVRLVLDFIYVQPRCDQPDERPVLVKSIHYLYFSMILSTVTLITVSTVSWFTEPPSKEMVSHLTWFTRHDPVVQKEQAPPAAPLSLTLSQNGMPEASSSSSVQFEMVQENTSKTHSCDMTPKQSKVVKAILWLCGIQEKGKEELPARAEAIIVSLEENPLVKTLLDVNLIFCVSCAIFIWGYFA
Put plainly: Inhibition of SGLT6 expressed in CHO cells assessed as inhibition of [14C]-alpha-methyl-D-glucopyranoside transport after 60 mins by scintillation counting. In kind it is cell-based.

The nature of data set [7]: Metabolic stability in human liver microsomes assessed as compound remaining after 30 mins. In kind it is ADME, Microsome. The conditions noted are these: read-out: Stability.

Structures are written as SMILES.

For the compound `CCn1c(CN2C(=O)CSc3ccc(C(F)(F)F)cc32)nnc1SCc1ccc(Cl)cc1`, the half-maximal inhibitory concentration (IC50) was 4.75 µM in data set [1] and 0.37 µM in data set [2].

As to `CC(C)n1c(CN2C(=O)CSc3ccc(C(F)(F)F)cc32)nnc1SCc1ccc(Cl)cc1`, the IC50 amounted to 2 µM in data set [1] and 1.2 µM in data set [2].

Turning to `O=C1CSc2ccc(C(F)(F)F)cc2N1Cc1nnc(SCc2ccc(Cl)cc2)n1C1CC1`, the 50% inhibitory concentration (IC50) turned out to be 3.75 µM in data set [1] and 1.1 µM in data set [2].

On to `O=C1CSc2ccc(C(F)(F)F)cc2N1Cc1nnc(SCc2ccc(Cl)cc2)n1-c1ccccc1`, for which the figures for the half-inhibitory concentration (IC50) in data set [1] and in data set [2] were 3.47 µM and 2.11 µM, respectively.

In the case of `CCn1c(CN2C(=O)COc3ccc(C(F)(F)F)cc32)nnc1SCc1ccc(Cl)cc1`, the IC50 in data set [1] turned out to be 6.64 µM; in data set [2], 0.25 µM.

Take `CCn1c(CN2C(=O)COc3ccc([N+](=O)[O-])cc32)nnc1SCc1ccc(Cl)cc1`: the IC50 in data set [1] turned out to be 5.61 µM; in data set [2], 2.1 µM.

For `CCn1c(CN2C(=O)COc3ccc(Br)cc32)nnc1SCc1ccc(Cl)cc1`, the IC50 was determined as 5.32 µM in data set [1] and 0.09 µM in data set [2].

As for `CCn1c(CN2C(=O)COc3ccc(Cl)cc32)nnc1SCc1ccc(Cl)cc1`, the IC50 in data set [1] is 7.34 µM; in data set [2], 0.15 µM.

For `CCn1c(CN2C(=O)COc3ccc(C)cc32)nnc1SCc1ccc(Cl)cc1`, the values for the 50% inhibitory concentration (IC50) in data set [1] and in data set [2] were 7.13 µM and 0.08 µM, respectively.

Take `CCn1c(CN2C(=O)COc3cc(Cl)ccc32)nnc1SCc1ccc(Cl)cc1`: the IC50 in data set [1] worked out at 3.29 µM; in data set [2] it was 0.43 µM.

Turning to `CCn1c(CN2C(=O)COc3cc(Br)ccc32)nnc1SCc1ccc(Cl)cc1`, the IC50 in data set [1] is 2.53 µM; in data set [2], 0.52 µM.

With `CCn1c(CN2C(=O)COc3c(Cl)cccc32)nnc1SCc1ccc(Cl)cc1`, the IC50 in data set [1] worked out at 7.34 µM; in data set [2], 0.15 µM.

In the case of `CCn1c(CCc2ccc(Cl)cc2)nnc1CN1C(=O)COc2ccc(C(F)(F)F)cc21`, the concentration for half-maximal inhibition (IC50) turned out to be 46 µM in data set [1] and 0.64 µM in data set [2].

With `CCCn1c(CCc2ccc(Cl)cc2)nnc1CN1C(=O)COc2ccc(C(F)(F)F)cc21`, the IC50 in data set [1] was 9.88 µM; in data set [2], 0.18 µM.

As for `CCCn1c(CCc2ccc(Cl)cc2)nnc1CN1C(=O)COc2ccc(Cl)cc21`, the IC50 in data set [1] was determined as 13.6 µM; in data set [2], 0.04 µM.

As to `CCCCn1c(CCc2ccc(Cl)cc2)nnc1CN1C(=O)COc2ccc(Cl)cc21`, the IC50 in data set [1] was determined as 11.8 µM; in data set [2], 0.03 µM.

On to `O=C1COc2ccc(Cl)cc2N1Cc1nnc(CCc2ccc(Cl)cc2)n1CC1CC1`, for which the IC50 in data set [1] turned out to be 7.28 µM; in data set [2], 0.03 µM.

As for `CC(C)Cn1c(CCc2ccc(Cl)cc2)nnc1CN1C(=O)COc2ccc(Cl)cc21`, the IC50 is 6.9 µM in data set [1] and 0.16 µM in data set [2].

On to `O=C1COc2ccc(Cl)cc2N1Cc1nnc(CCc2ccc(Cl)cc2)n1CCC(F)(F)F`, for which the IC50 worked out at 13.8 µM in data set [1] and 0.07 µM in data set [2].

`O=C1COc2ccc(Cl)cc2N1Cc1nnc(CCc2ccc(Cl)cc2)n1C1CC1`: the figures for the 50% inhibitory concentration (IC50) in data set [1] and in data set [2] were 25 µM and 1.58 µM, respectively.

In the case of `CCCn1c(CCc2ccc(Cl)cc2)nnc1CN1C(=O)COc2c(Cl)cc(Cl)cc21`, the IC50 turned out to be 0.016 µM in data set [3]; 0.04 µM in data set [5]; 9.14 µM in data set [1]; 14.4 µM in data set [6]; 0.009 µM in data set [2]. Further, the remaining at 0.5 h in data set [4] and in data set [7] was 4% in each case.

Take `O=C1COc2c(Cl)cc(Cl)cc2N1Cc1nnc(CCc2ccc(Cl)cc2)n1CCC(F)(F)F`: the remaining at 0.5 h in data set [4] and in data set [7] was 4% in each case. In data set [6], the half-inhibitory concentration (IC50) is 9.2 µM.

`CCOc1ccc(Cc2cc([C@@H]3O[C@H](CO)[C@@H](O)[C@H](O)[C@H]3O)ccc2Cl)cc1` [DAPAGLIFLOZIN]: the IC50 in data set [6] amounted to 0.38 µM.

As a reminder, the IC50 is the concentration that gives 50% inhibition.
